In patent EP0155825A2, “Novel choline derivatives” (NITTO BOSEKI CO., LTD., priority 1984, dated 1985):

Test: Stability against non-enzymatic hydrolysis in buffer
Format: physicochemical
Settings: 1/15 molar phosphate buffer (pH 8.20) at 37°C for 90 minutes

Question: For `C[N+](C)(C)CCOC(=O)c1ccc(O)c(O)c1.[I-]` [DHBCI, 3,4-dihydroxybenzoylcholine iodide], which non-enzymatic hydrolysis is on record?
Answer: Its non-enzymatic hydrolysis is “substantially no hydrolysis”.
